{"source": "paper PMC8822125", "about": "“RW-BP100-4D, a Promising Antimicrobial Candidate With Broad-Spectrum Bactericidal Activity” (Frontiers in Microbiology, 2022)", "key": {"[1]": {"system": "trypsin", "test": "in vitro"}, "[2]": {"system": "E. coli ATCC25922", "details": "1 h, mean of three"}, "[3]": {"test": "in vitro", "details": "calf serum"}, "[4]": {"system": "MAC-T cells", "details": "peptide 150 μg/mL, 24 h, WST-1, mean ± SD, three repeats"}, "[5]": {"system": "S. aureus ATCC29213", "details": "1 h, mean of three"}, "[6]": {"target": "papain (Carica papaya, UniProt P00784)", "sequence (P00784 134-345)": "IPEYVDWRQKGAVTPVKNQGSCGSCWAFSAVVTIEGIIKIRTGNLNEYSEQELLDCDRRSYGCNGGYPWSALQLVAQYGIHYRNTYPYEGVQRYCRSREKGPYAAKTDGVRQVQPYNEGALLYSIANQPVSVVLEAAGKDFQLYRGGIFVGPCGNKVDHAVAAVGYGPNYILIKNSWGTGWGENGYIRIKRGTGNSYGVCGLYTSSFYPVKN", "details": "100 μg/mL peptide, papain 1 mg/mL, 37°C, 1 h; decrease of HPLC peak area (C8, UV 220 nm)"}, "[7]": {"system": "various microorganisms", "test": "MIC/MBC, summary statements over several strains", "assay_type": "cell-based"}, "[8]": {"details": "100 μg/mL in PBS, 1 h"}, "[9]": {"system": "RAW264.7 cells", "details": "peptide 150 μg/mL, 24 h, WST-1, mean ± SD, three repeats"}, "[10]": {"system": "Listeria monocytogenes LM08", "details": "Listeria monocytogenes LM08 (tetM); mean of three repeated experiments", "description": "(§1) To compare the antibacterial activity of RW-BP100 and its serial derivatives, the MIC against S. aureus ATCC29213 and E. coli ATCC25922 were determined using broth microdilution method according to the guidelines of Clinical and Laboratory Standards Institute (CLSI) M100-S25 ([CLSI, 2015]). Briefly, peptides were dissolved in sterilized water and twofold diluted in Mueller-Hinton (MH) broth (Beijing Land Bridge Technology) at the concentration ranges of 0.098–100 μg/mL. Then the peptides were mixed with an equal volume (100 μL) of bacterial suspensions of 10^6 CFU/mL in a sterilized 96-well microtiter plate. […] To further evaluate the antimicrobial spectrum of RW-BP100-4D, MICs were determined against a more variety of Gram-positive and Gram-negative bacterial species, and the fungal strains (according to CLSI M38 guideline). […] MIC and MBC testing were performed with three independent repeats."}, "[11]": {"system": "Klebsiella pneumoniae XG-Kpn03", "details": "Klebsiella pneumoniae XG-Kpn03 (blaNDM-5); mean of three repeated experiments", "description": "as §1"}, "[12]": {"system": "Enterococcus faecalis JH2-2", "details": "mean of three repeated experiments", "description": "as §1"}, "[13]": {"system": "Shewanella putrefaction ATCC49138", "details": "mean of three repeated experiments", "description": "as §1"}, "[14]": {"system": "Pseudomonas fluorescens AC04", "details": "mean of three repeated experiments", "description": "as §1"}, "[15]": {"system": "Escherichia coli XG-E1", "details": "Escherichia coli XG-E1 (blaNDM-5, mcr-1); mean of three repeated experiments", "description": "as §1"}, "[16]": {"system": "Salmonella enterica ATCC13076", "details": "mean of three repeated experiments", "description": "as §1"}, "[17]": {"system": "Listeria monocytogenes ATCC19115", "details": "mean of three repeated experiments", "description": "as §1"}, "[18]": {"system": "Acinetobacter baumannii 34AB", "details": "Acinetobacter baumannii 34AB (tet(X3)); mean of three repeated experiments", "description": "as §1"}, "[19]": {"system": "Pseudomonas aeruginosa 42", "details": "mean of three repeated experiments", "description": "as §1"}, "[20]": {"system": "Campylobacter jejuni ATCC33291", "details": "mean of three repeated experiments", "description": "as §1"}, "[21]": {"system": "Streptococcus agalactiae ATCC13813", "details": "mean of three repeated experiments", "description": "as §1"}, "[22]": {"system": "Enterococcus faecalis 32", "details": "Enterococcus faecalis 32 (optrA); mean of three repeated experiments", "description": "as §1"}, "[23]": {"system": "Staphylococcus epidermidis ATCC29887", "details": "mean of three repeated experiments", "description": "as §1"}, "[24]": {"system": "Candida albicans ATCC10231", "test": "MIC/MBC, broth microdilution (CLSI M38)", "assay_type": "cell-based"}, "[25]": {"system": "Escherichia coli ATCC25922"}, "[26]": {"details": "100 μg/mL peptide in PBS, pH 7, 40-80 ℃, then broth microdilution"}, "[27]": {"details": "100 μg/mL peptide in PBS, pH 7, 90 ℃"}, "[28]": {"details": "100 μg/mL peptide in PBS, pH 7, 100 ℃"}, "[29]": {"details": "100 μg/mL peptide with papain 1 mg/mL, 37°C, protease inactivated 80°C 30 min"}, "[30]": {"details": "100 μg/mL peptide with sterile calf serum, 37°C, serum inactivated 80°C 30 min"}, "[31]": {"details": "100 μg/mL peptide with trypsin 1 mg/mL, 37°C, protease inactivated 80°C 30 min"}, "[32]": {"details": "100 μg/mL peptide, pH 2-7, 37°C, then adjusted to pH 7.0"}, "[33]": {"details": "100 μg/mL peptide, pH 8-9, 37°C, then adjusted to pH 7.0"}}, "note": "Where a SMILES comes first, the peptide text is derived from it.", "data": [{"smiles": "CC[C@H](C)[C@H](NC(=O)[C@H](CCCNC(=N)N)NC(=O)[C@H](CCCNC(=N)N)NC(=O)[C@@H](Cc1ccccc1)NC(=O)[C@H](CC(C)C)NC(=O)[C@H](CCCNC(=N)N)NC(=O)[C@@H](N)CCCNC(=N)N)C(=O)N[C@@H](CC(C)C)C(=O)N[C@@H](CCCNC(=N)N)C(=O)N[C@@H](Cc1c[nH]c2ccccc12)C(=O)N[C@@H](CC(C)C)C(N)=O", "note": "[RW-BP100-4D] (HELM PEPTIDE1{R.R.L.[dF].R.R.I.L.R.W.L.[am]}$$$$V2.0)", "values": [{"measurement": "metabolised at 1 h, 100 μg/mL", "setting": "[1]", "value": "> 90", "unit": "%"}, {"measurement": "MIC of RW-BP100-4D against E. coli ATCC25922 after 40-80 ℃", "setting": "[2]; [26]", "value": 6, "unit": "µg/mL"}, {"measurement": "MIC of RW-BP100-4D against E. coli ATCC25922 after 90 ℃", "setting": "[2]; [27]", "value": 12, "unit": "µg/mL"}, {"measurement": "MIC of RW-BP100-4D against E. coli ATCC25922 after 100 ℃", "setting": "[2]; [28]", "value": 25, "unit": "µg/mL"}, {"measurement": "MIC of RW-BP100-4D against E. coli ATCC25922 after papain", "setting": "[2]; [29]", "value": ">50", "unit": "µg/mL"}, {"measurement": "MIC of RW-BP100-4D against E. coli ATCC25922 after calf serum", "setting": "[2]; [30]", "value": ">50", "unit": "µg/mL"}, {"measurement": "MIC of RW-BP100-4D against E. coli ATCC25922 after trypsin", "setting": "[2]; [31]", "value": ">50", "unit": "µg/mL"}, {"measurement": "MIC of RW-BP100-4D against E. coli ATCC25922 after pH 2-7", "setting": "[2]; [32]", "value": 6, "unit": "µg/mL"}, {"measurement": "MIC of RW-BP100-4D against E. coli ATCC25922 after pH 8-9", "setting": "[2]; [33]", "value": 12, "unit": "µg/mL"}, {"measurement": "metabolised at 1 h, 100 μg/mL", "setting": "[3]", "value": "> 90", "unit": "%"}, {"measurement": "Cell survival rate, MAC-T", "setting": "[4]", "value": "92.68 ± 3.65", "unit": "%"}, {"measurement": "MIC of RW-BP100-4D against S. aureus ATCC29213 after 40-80 ℃", "setting": "[5]; [26]", "value": 3, "unit": "µg/mL"}, {"measurement": "MIC of RW-BP100-4D against S. aureus ATCC29213 after 90 ℃", "setting": "[5]; [27]", "value": 6, "unit": "µg/mL"}, {"measurement": "MIC of RW-BP100-4D against S. aureus ATCC29213 after 100 ℃", "setting": "[5]; [28]", "value": 25, "unit": "µg/mL"}, {"measurement": "MIC of RW-BP100-4D against S. aureus ATCC29213 after papain", "setting": "[5]; [29]", "value": ">50", "unit": "µg/mL"}, {"measurement": "MIC of RW-BP100-4D against S. aureus ATCC29213 after calf serum", "setting": "[5]; [30]", "value": ">50", "unit": "µg/mL"}, {"measurement": "MIC of RW-BP100-4D against S. aureus ATCC29213 after trypsin", "setting": "[5]; [31]", "value": ">50", "unit": "µg/mL"}, {"measurement": "MIC of RW-BP100-4D against S. aureus ATCC29213 after pH 2-7", "setting": "[5]; [32]", "value": 3, "unit": "µg/mL"}, {"measurement": "MIC of RW-BP100-4D against S. aureus ATCC29213 after pH 8-9", "setting": "[5]; [33]", "value": 12, "unit": "µg/mL"}, {"measurement": "Degradation, papain", "setting": "[6]", "value": ">90", "unit": "%"}, {"measurement": "MICs against the selected Gram-negative bacterial isolates", "setting": "[7]; E. coli, Salmonella enterica, K. pneumoniae, C. jejuni, A. baumannii, Pseudomonas spp., S. putrefaction, range over strains", "value": "3 to 25", "unit": "µg/mL"}, {"measurement": "MIC against S. aureus ATCC29213 and E. coli ATCC25922 (both strains together)", "setting": "[7]; summary of Table 1", "value": "3 to 12", "unit": "µg/mL"}, {"measurement": "Degradation, 40-80 ℃", "setting": "[8]; pH 7, 40-80 ℃, decrease of HPLC peak area (C8, UV 220 nm) of native peptide", "value": 0, "unit": "%"}, {"measurement": "Degradation, 90 ℃", "setting": "[8]; pH 7, 90 ℃, decrease of HPLC peak area (C8, UV 220 nm)", "value": 56, "unit": "%"}, {"measurement": "Degradation, 100 ℃", "setting": "[8]; pH 7, 100 ℃, decrease of HPLC peak area (C8, UV 220 nm)", "value": 82, "unit": "%"}, {"measurement": "Cell survival rate, RAW264.7", "setting": "[9]", "value": "78.02 ± 7.66", "unit": "%"}, {"measurement": "MBC of peptides", "setting": "[10]", "value": 6, "unit": "µg/mL"}, {"measurement": "MIC of peptides", "setting": "[10]", "value": 3, "unit": "µg/mL"}, {"measurement": "MBC of peptides", "setting": "[11]", "value": 50, "unit": "µg/mL"}, {"measurement": "MIC of peptides", "setting": "[11]", "value": 25, "unit": "µg/mL"}, {"measurement": "MBC of peptides", "setting": "[12]", "value": 50, "unit": "µg/mL"}, {"measurement": "MIC of peptides", "setting": "[12]", "value": 12, "unit": "µg/mL"}, {"measurement": "MBC of peptides", "setting": "[13]", "value": 12, "unit": "µg/mL"}, {"measurement": "MIC of peptides", "setting": "[13]", "value": 6, "unit": "µg/mL"}, {"measurement": "MBC of peptides", "setting": "[14]", "value": 12, "unit": "µg/mL"}, {"measurement": "MIC of peptides", "setting": "[14]", "value": 6, "unit": "µg/mL"}, {"measurement": "MBC of peptides", "setting": "[15]", "value": 6, "unit": "µg/mL"}, {"measurement": "MIC of peptides", "setting": "[15]", "value": 3, "unit": "µg/mL"}, {"measurement": "MBC of peptides", "setting": "[16]", "value": 6, "unit": "µg/mL"}, {"measurement": "MIC of peptides", "setting": "[16]", "value": 3, "unit": "µg/mL"}, {"measurement": "MBC of peptides", "setting": "[17]", "value": 6, "unit": "µg/mL"}, {"measurement": "MIC of peptides", "setting": "[17]", "value": 3, "unit": "µg/mL"}, {"measurement": "MBC of peptides", "setting": "[18]", "value": 12, "unit": "µg/mL"}, {"measurement": "MIC of peptides", "setting": "[18]", "value": 6, "unit": "µg/mL"}, {"measurement": "MBC of peptides", "setting": "[19]", "value": 50, "unit": "µg/mL"}, {"measurement": "MIC of peptides", "setting": "[19]", "value": 12, "unit": "µg/mL"}, {"measurement": "MBC of peptides", "setting": "[20]", "value": 12, "unit": "µg/mL"}, {"measurement": "MIC of peptides", "setting": "[20]", "value": 6, "unit": "µg/mL"}, {"measurement": "MBC of peptides", "setting": "[21]", "value": 6, "unit": "µg/mL"}, {"measurement": "MIC of peptides", "setting": "[21]", "value": 3, "unit": "µg/mL"}, {"measurement": "MBC of peptides", "setting": "[22]", "value": 50, "unit": "µg/mL"}, {"measurement": "MIC of peptides", "setting": "[22]", "value": 12, "unit": "µg/mL"}, {"measurement": "MBC of peptides", "setting": "[23]", "value": 6, "unit": "µg/mL"}, {"measurement": "MIC of peptides", "setting": "[23]", "value": 3, "unit": "µg/mL"}, {"measurement": "MIC of peptides", "setting": "[24]; CLSI M38, mean of three repeated experiments", "value": 12, "unit": "µg/mL"}, {"measurement": "MBC of peptides", "setting": "[24]; mean of three repeated experiments", "value": 25, "unit": "µg/mL"}, {"measurement": "MBC of peptides", "setting": "[25]; Escherichia coli ACTT25922, mean of three repeated experiments", "value": 12, "unit": "µg/mL"}, {"measurement": "MIC Escherichia coli ATCC25922", "setting": "[25]; Table 1, broth microdilution CLSI M100-S25, MH broth, 37°C, 18 h, three independent repeats", "value": 6, "unit": "µg/mL"}, {"measurement": "MIC of peptides", "setting": "[25]; Table 2, Escherichia coli ACTT25922, mean of three repeated experiments", "value": 6, "unit": "µg/mL"}]}]}
